# Test results from EPA's ToxValDB 9.5 (doi:10.2903/j.efsa.2008.148r).
# Legend:
# Apis mellifera = conditions: acute; duration: 48 hours; oral; unspecified; mortality
# Avena sativa = conditions: acute; duration: 14 days; growth
# Canidae = conditions: subchronic; duration: 90 days; oral; Dog Other; clinical signs
# Coturnix japonica = conditions: acute; oral; mortality
# Daphnia magna = conditions: chronic/long-term; duration: 21 days; reproduction
# Folsomia candida = conditions: chronic/long-term; duration: 28 days; reproduction
# Lepidium sativum = conditions: acute; duration: 14 days; growth
# Macromiidae = conditions: acute; duration: 72 hours; biomass
# Mus musculus = conditions: acute; oral; mortality
# Oryctolagus sp. = conditions: reproduction developmental; body weight
# Poecilus cupreus = assay: LR50; higher = less toxic; conditions: not reported; mortality
smiles,measurement,setting,value
O=[N+]([O-])/N=C1\NCCN1Cc1ccc(Cl)nc1 [Imidacloprid],LD50,Apis mellifera,0.0037 µg/piece
same,NOEC,Avena sativa,≥ 100 mg/kg
same,NOAEL,Canidae,7.8 mg/kg-day
same,NOAEL,Colinus virginianus; reproduction developmental,9.3 mg/kg-day
same,NOEL,"Colinus virginianus; short-term, oral, diet",29.4 mg/kg-day
same,LD50,Coturnix japonica,31 mg/kg-day
same,NOEC,Daphnia magna,1.8 mg/L
same,NOEC,Folsomia candida,1.25 mg/kg
same,NOEC,Lepidium sativum,10 mg/kg
same,NOEC,Macromiidae,10 mg/L
same,LD50,Mus musculus,131 mg/kg-day
same,LC50,"Oncorhynchus mykiss; acute, duration: 96 hours, mortality",211 µg/mL
same,NOEC,"Oncorhynchus mykiss; chronic/long-term, duration: 91 days, time to swim up",9.02 mg/L
same,NOAEL,Oryctolagus sp.,8 mg/kg-day
same,NOAEL,Rattus norvegicus; chronic,17 mg/kg-day
same,NOAEL,"Rattus norvegicus; chronic, duration: 2 years, histopathology: nonneoplastic",5.7 mg/kg-day
same,NOAEL,"Rattus norvegicus; subchronic, duration: 90 days, oral, histopathology: nonneoplastic",9.3 mg/kg-day
same,LC50,"Tagia sp.; acute, duration: 14 days, mortality",10.7 mg/kg
same,NOEC,"Tagia sp.; chronic/long-term, duration: 56 days, reproduction",> 0.178 mg/kg
same,LR50,Poecilus cupreus,0.136 mg/kg
